The values below come from US11512069B2, “TLR7/8 antagonists and uses thereof” (Merck Patent GmbH, priority 2016, dated 2022).

In this test the target is T1, TLR7 (Homo sapiens, UniProt Q9NYK1).
T1 construct: expressed in transfected cells; host or cells: HEK cells carrying TLR7 and an NF-kB reporter read with Steady-Glo
T1 sequence (Q9NYK1 27-1049): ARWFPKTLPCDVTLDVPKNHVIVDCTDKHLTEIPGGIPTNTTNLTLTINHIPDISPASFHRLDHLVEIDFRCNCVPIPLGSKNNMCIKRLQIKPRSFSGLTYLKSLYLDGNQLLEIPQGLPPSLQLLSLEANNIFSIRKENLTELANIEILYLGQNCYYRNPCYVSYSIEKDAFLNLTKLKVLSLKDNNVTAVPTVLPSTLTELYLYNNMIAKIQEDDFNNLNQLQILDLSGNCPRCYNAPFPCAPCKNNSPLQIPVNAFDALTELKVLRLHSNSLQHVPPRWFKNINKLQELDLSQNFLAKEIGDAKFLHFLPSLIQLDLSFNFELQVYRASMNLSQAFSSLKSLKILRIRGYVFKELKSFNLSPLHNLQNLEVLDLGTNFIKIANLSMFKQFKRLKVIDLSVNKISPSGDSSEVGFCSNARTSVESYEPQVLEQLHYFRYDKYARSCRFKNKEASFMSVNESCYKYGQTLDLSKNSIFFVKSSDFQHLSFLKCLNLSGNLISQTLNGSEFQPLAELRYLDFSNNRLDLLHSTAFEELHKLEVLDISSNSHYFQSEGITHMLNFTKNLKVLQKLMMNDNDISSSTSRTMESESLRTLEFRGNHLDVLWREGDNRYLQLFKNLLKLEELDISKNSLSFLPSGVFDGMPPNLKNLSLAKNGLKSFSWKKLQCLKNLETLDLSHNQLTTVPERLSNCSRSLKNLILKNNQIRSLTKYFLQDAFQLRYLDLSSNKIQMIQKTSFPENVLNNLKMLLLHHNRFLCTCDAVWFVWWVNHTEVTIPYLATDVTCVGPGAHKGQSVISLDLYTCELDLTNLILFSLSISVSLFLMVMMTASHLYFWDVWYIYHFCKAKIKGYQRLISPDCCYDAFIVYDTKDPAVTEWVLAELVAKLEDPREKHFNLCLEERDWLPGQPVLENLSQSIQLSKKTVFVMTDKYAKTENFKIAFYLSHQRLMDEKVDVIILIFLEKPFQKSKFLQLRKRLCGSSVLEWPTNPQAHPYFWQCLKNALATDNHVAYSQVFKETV
Kind of test: HEK Cell Assay (TLR7/NFKb HEK reporter cells, Steady-Glo). Type of test: cell-based. Conditions: compound 30 min, then R*48 agonist 5 hours, Steady-Glo readout, read-out: Potency. An outline of the steps:
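TLR7/NF-κB HEK reporter cells cultured 24 h, then pre-incubated 30 min with compound before adding R*48 agonist. Luciferase read by Steady-Glo luminescence after 5 h.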

`CC1CC(c2ccc(C#N)c3ncccc23)CN(C(=O)NCC2CC(F)(F)C2)C1` (stereo not shown) [Compound 110, 3-(8-Cyano-quinolin-5-yl)-5-methyl-piperidine-1-carboxylic acid (3,3-difluoro-cyclobutylmethyl)-amide]: the IC50 fell in the range of 1000 to 20000 nM. Consider `C[C@@H]1C[C@H](c2ccc(OC(F)(F)F)c3ncccc23)CN(C(=O)NC2CCN(C)CC2)C1` [Compound 112, (3R,5R)-3-Methyl-5-(8-trifluoromethoxy-quinolin-5-yl)-piperidine-1-carboxylic acid (1-methyl-piperidin-4-yl)-amide], for which the IC50 was < 1000 nM. Turning to `C[C@@H]1C[C@H](c2ccc(C#N)c3ncccc23)CN(C(=O)NC2CCN(C)CC2)C1` [Compound 113, (3R,5R)-3-(8-Cyano-quinolin-5-yl)-5-methyl-piperidine-1-carboxylic acid (1-methyl-piperidin-4-yl)-amid], the IC50 is < 1000 nM. The same measure for `C[C@@H]1C[C@@H](c2cccc3ncccc23)CN(C(=O)NC2CCN(C)CC2)C1` [Compound 114, (3R,5S)-3-Methyl-5-quinolin-5-yl-piperidine-1-carboxylic acid (1-methyl-piperidin-4-yl)-amide]: 1000 to 20000 nM. Turning to `C[C@@H]1C[C@H](c2cccc3ncccc23)CN(C(=O)NC2CCN(C)CC2)C1` [Compound 115, (3R,5R)-3-Methyl-5-quinolin-5-yl-piperidine-1-carboxylic acid (1-methyl-piperidin-4-yl)-amide], the IC50 lay within 1000 to 20000 nM. The same measure for `C[C@@H]1C[C@H](c2ccc(C#N)c3ncccc23)CN(C(=O)CN2CCC3(CC2)CNC3)C1` [Compound 117, 5-[(3R,5R)-1-(2-2,7-Diaza-spiro[3.5]non-7-yl-acetyl)-5-methyl-piperidin-3-yl]-quinoline-8-carbonitrile]: 1000 to 20000 nM; for `C[C@@H]1C[C@H](c2ccc(C#N)c3ncccc23)CN(C(N)=O)C1` [Compound 118, (3R,5R)-3-(8-Cyano-quinolin-5-yl)-5-methyl-piperidine-1-carboxylic acid amide]: 1000 to 20000 nM. The result for `C[C@@H]1C[C@H](c2ccc(C#N)c3ncccc23)CN(C(=N)N)C1` [Compound 119, (3R,5R)-3-(8-Cyano-quinolin-5-yl)-5-methyl-piperidine-1-carboxamidine] reads 1000 to 20000 nM; that for `C[C@H]1C[C@@H](N)C[C@@H](c2ccc(C#N)c3nccnc23)C1` [Compound 121, 8-[(1S,3R,5R)-3-amino-5-methylcyclohexyl]quinoxaline-5-carbonitrile], < 1000 nM. The same measure for `C[C@@H]1C[C@H](N)C[C@H](c2ccc(C#N)c3nccnc23)C1` [Compound 122, 8-((1R,3S,5S)-3-amino-5-methylcyclohexyl)quinoxaline-5-carbonitrile]: 1000 to 20000 nM; for `C[C@H]1C[C@@H](N)C[C@H](c2ccc(C#N)c3nccnc23)C1` [Compound 123, 8-[(1R,3R,5R)-3-amino-5-methylcyclohexyl]quinoxaline-5-carbonitrile]: < 1000 nM. Take `C[C@@H]1C[C@H](N)C[C@@H](c2ccc(C#N)c3nccnc23)C1` [Compound 124, 8-((1S,3S,5S)-3-amino-5-methylcyclohexyl)quinoxaline-5-carbonitrile]: the IC50 is > 20000 nM. As for `CC(C)[C@H](O)C(=O)N[C@@H]1C[C@H](C)C[C@H](c2ccc(C#N)c3nccnc23)C1` [Compound 125, (S)—N-((1R,3S,5R)-3-(8-cyanoquinoxalin-5-yl)-5-methylcyclohexyl)-2-hydroxy-3-methylbutanamide], the IC50 is < 1000 nM. For `CC(C)[C@H](O)C(=O)N[C@H]1C[C@@H](C)C[C@@H](c2ccc(C#N)c3nccnc23)C1` [Compound 126, (S)—N-((1S,3R,5S)-3-(8-cyanoquinoxalin-5-yl)-5-methylcyclohexyl)-2-hydroxy-3-methylbutanamide], the IC50 is 1000 to 20000 nM. The result for `CC(C)[C@H](O)C(=O)N[C@@H]1C[C@H](C)C[C@@H](c2ccc(C#N)c3nccnc23)C1` [Compound 127, (S)—N-((1R,3R,5R)-3-(8-cyanoquinoxalin-5-yl)-5-methylcyclohexyl)-2-hydroxy-3-methylbutanamide] reads > 20000 nM. The result for `CC(C)[C@H](O)C(=O)N[C@H]1C[C@@H](C)C[C@H](c2ccc(C#N)c3nccnc23)C1` [Compound 128, (S)—N-((1S,3S,5S)-3-(8-cyanoquinoxalin-5-yl)-5-methylcyclohexyl)-2-hydroxy-3-methylbutanamide] reads 1000 to 20000 nM; that for `C[C@H]1C[C@@H](N)C[C@@H](c2ccc(C(F)(F)F)c3ncccc23)C1` [Compound 135, (1R,3R,5S)-3-methyl-5-(8-(trifluoromethyl)quinolin-5-yl)cyclohexanamine], 1000 to 20000 nM. For the compound `C[C@@H]1C[C@H](N)C[C@H](c2ccc(C(F)(F)F)c3ncccc23)C1` [Compound 136, (1S,3S,5R)-3-methyl-5-(8-(trifluoromethyl)quinolin-5-yl)cyclohexanamine], the IC50 is < 1000 nM. Take `C[C@H]1C[C@@H](N)C[C@H](c2ccc(C(F)(F)F)c3ncccc23)C1` [Compound 137, (1R,3R,5R)-3-methyl-5-(8-(trifluoromethyl)quinolin-5-yl)cyclohexanamine]: the IC50 lay within 1000 to 20000 nM.

Turning to `C[C@@H]1C[C@H](N)C[C@@H](c2ccc(C(F)(F)F)c3ncccc23)C1` [Compound 138, (1S,3S,5S)-3-methyl-5-(8-(trifluoromethyl)quinolin-5-yl)cyclohexanamine], the IC50 is < 1000 nM. The same measure for `C[C@H]1C[C@@H](N)C[C@@H](c2ccc(C(F)(F)F)c3nccnc23)C1` [Compound 139, (1R,3R,5S)-3-methyl-5-(8-(trifluoromethyl)quinoxalin-5-yl)cyclohexanamine]: < 1000 nM; for `C[C@H]1C[C@@H](N)C[C@H](c2ccc(C(F)(F)F)c3nccnc23)C1` [Compound 140, (1R,3R,5R)-3-methyl-5-(8-(trifluoromethyl)quinoxalin-5-yl)cyclohexanamine]: 1000 to 20000 nM; for `C[C@@H]1C[C@H](N)C[C@@H](c2ccc(C(F)(F)F)c3nccnc23)C1` [Compound 141, (1S,3S,5S)-3-methyl-5-(8-(trifluoromethyl)quinoxalin-5-yl)cyclohexanamine]: < 1000 nM. Take `C[C@@H]1C[C@H](N)C[C@H](c2ccc(C(F)(F)F)c3nccnc23)C1` [Compound 142, (1S,3S,5R)-3-methyl-5-(8-(trifluoromethyl)quinoxalin-5-yl)cyclohexanamine]: the IC50 was < 1000 nM. For `COCCN[C@@H]1C[C@H](C)C[C@H](c2ccc(C(F)(F)F)c3nccnc23)C1` [Compound 147, (1R,3R,5S)—N-(2-methoxyethyl)-3-methyl-5-(8-(trifluoromethyl)quinoxalin-5-yl)cyclohexanamine], the IC50 is > 20000 nM.

For `COCCN[C@H]1C[C@@H](C)C[C@@H](c2ccc(C(F)(F)F)c3nccnc23)C1` [Compound 148, (1S,3S,5R)—N-(2-methoxyethyl)-3-methyl-5-(8-(trifluoromethyl)quinoxalin-5-yl)cyclohexanamine], the IC50 lay within 1000 to 20000 nM. The same measure for `COCCN[C@@H]1C[C@H](C)C[C@@H](c2ccc(C(F)(F)F)c3nccnc23)C1` [Compound 149, (1R,3R,5R)—N-(2-methoxyethyl)-3-methyl-5-(8-(trifluoromethyl)quinoxalin-5-yl)cyclohexanamine]: 1000 to 20000 nM; for `COCCN[C@H]1C[C@@H](C)C[C@H](c2ccc(C(F)(F)F)c3nccnc23)C1` [Compound 150, (1S,3S,5S)—N-(2-methoxyethyl)-3-methyl-5-(8-(trifluoromethyl)quinoxalin-5-yl)cyclohexanamine]: > 20000 nM. Regarding `COCCN[C@@H]1C[C@H](C)C[C@H](c2ccc(C(F)(F)F)c3ncccc23)C1` [Compound 152, (1R,3R,5S)—N-(2-methoxyethyl)-3-methyl-5-(8-(trifluoromethyl)quinolin-5-yl)cyclohexanamine], the IC50 is > 20000 nM. The same measure for `COCCN[C@H]1C[C@@H](C)C[C@@H](c2ccc(C(F)(F)F)c3ncccc23)C1` [Compound 153, (1S,3S,5R)—N-(2-methoxyethyl)-3-methyl-5-(8-(trifluoromethyl)quinolin-5-yl)cyclohexanamine]: 1000 to 20000 nM. On to `C[C@H]1C[C@@H](NC(=O)[C@@H](O)C(C)(C)C)C[C@@H](c2ccc(C(F)(F)F)c3nccnc23)C1` [Compound 154, (S)-2-hydroxy-3,3-dimethyl-N-((1R,3R,5S)-3-methyl-5-(8-(trifluoromethyl)quinoxalin-5-yl)cyclohexyl)butanamide], for which the IC50 was < 1000 nM.
